PubChem BioAssay (NCI)
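Briefly, cells in 96-well plates were exposed to five compound concentrations for 48 h, and endpoints were estimated by linear interpolation. GI50 marks 50% less growth. TGI: total growth inhibition.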

Tested on: SN12C renal
Test: DTP human tumour cell line panel, 48 h

| Compound | TGI | GI50 |
| --- | --- | --- |
| CC(=O)CSCc1ccccn1 | > 100 µM |  |
| COc1ccccc1CNCCCN1C(=O)c2ccc3c4c(ccc(c24)C1=O)C(=O)N(CCCOCCCCOCCCN)C3=O | 2.78 µM | 1.24 µM |
| CCOC(=O)[C@@H](N)CCC(=O)N[C@@H](CSCc1ccccc1)C(=O)N[C@@H](C(=O)OCC)c1ccccc1 | 34.9 µM | 18 µM |
| COc1ccc(Nc2c3ccccc3nc3occc23)cc1 | 23.4 µM | 2.45 µM |
| CC(=O)/C(C)=N/NC(=O)c1ccccc1O | > 100 µM | > 100 µM |
| CCCCCCCC/C=C/CCCCCCCC(=O)OC[C@H]1O[C@@H](n2ccc(N)nc2=O)C(F)(F)[C@@H]1O | > 47.2 µM | 0.0388 µM |
| NS(=O)(=O)c1ccc(N=Nc2c(O)[nH]c3ccc(-c4cnco4)cc23)cc1 | > 25 µM | > 25 µM |
| COc1cc2c3c(n(CCCNC(=O)OCC4c5ccccc5-c5ccccc54)c(=O)c2cc1OC)-c1cc2c(cc1/C3=C\CCNC(=O)OCC1c3ccccc3-c3ccccc31)OCO2 | > 50 µM | > 50 µM |
| N#C/C(=C1C=C(Br)/C(=N\O)C=C\1Cl)c1cccc2ccccc12 | 23.2 µM |  |
| CN1C(=O)c2cccc3cc([N+](=O)[O-])cc(c23)C1=O | > 10 µM |  |
| CN1c2ccc(Cl)cc2C(=O)NC1c1ccc([N+](=O)[O-])s1 (centres undefined) | 30.9 µM |  |
| c1cc(CNC23CC4CC(CC(C4)C2)C3)cc(C[N+](Cc2cccc(CNC34CC5CC(CC(C5)C3)C4)c2)(Cc2cccc(CNC34CC5CC(CC(C5)C3)C4)c2)Cc2cccc(CNC34CC5CC(CC(C5)C3)C4)c2)c1 (centres undefined) | 18.5 µM | 5.9 µM |

Tested on: SK-OV-3 ovarian
Test: DTP human tumour cell line panel, 48 h

| Compound | GI50 | TGI |
| --- | --- | --- |
| CN1CCN(CCCOc2ccc3nc(Nc4ccc(Cl)c(C(F)(F)F)c4)ccc3c2)CC1 | 18.2 µM | 33 µM |
| CC(C)n1nc(-c2cc3cc(O)ccc3[nH]2)c2c(N)ncnc21 | 0.14 µM | 0.754 µM |
| CCCCC(O)(c1ccc(Cl)cc1)C(CN1CCOCC1)c1ccc(Cl)cc1 (centres undefined) | 15.2 µM | 47.1 µM |
| Cc1cc(C(=O)Nc2ncc(Cc3cccc(C(F)(F)F)c3)s2)c2ccccc2n1 | 4.24 µM | > 100 µM |
| O=C(N/N=C/c1ccc(Cl)cc1)c1ccc(C(F)(F)F)nc1Nc1cccc(C(F)(F)F)c1 | 1.85 µM | 7.54 µM |
| COc1cc2ncnc(Nc3ccc(C)c(O)c3)c2cc1OC | 1.32 µM | > 19.9 µM |
| O=C1OC(C(O)CO)C(=O)C1=O (centres undefined) | 2910 µM | 7200 µM |
| COC(=O)C1=CNC=C(C(=O)OC)C1C1=CC(=O)C(C)=CC1=O | 17.6 µM | 37.3 µM |
| C=C1C(=O)O[C@H]2[C@H]1CC/C(COC(=O)C(=O)c1cn(Cc3ccccc3)c3ccccc13)=C\CC[C@@]1(C)O[C@@H]21 | 18.9 µM | 56.7 µM |
| COc1ccc(/C=C/c2ccnc3ccccc23)c(OC)c1 |  | > 10 µM |
| Cc1ccc(C(=O)CN(/C=C/C(=O)C(F)(F)F)c2ccc(S(N)(=O)=O)cc2)cc1 | > 100 µM | > 100 µM |
| Clc1nc(Cl)c(Cl)c(-c2ccccc2)n1 |  | 25.8 µM |
| COC(C(O)CO)C(O)C(O)C(=O)NNc1ccccc1 (centres undefined) |  | > 100 µM |
| NS(=O)(=O)c1ccc(NC2(C(=O)O)CCCC2)cc1 |  | > 100 µM |
| O=C(O)C1OC(n2cc(F)c(=O)[nH]c2=O)CC1O (centres undefined) |  | > 100 µM |
| N=C1C(c2nc3ccccc3s2)=C(O)CN1c1cc(C(F)(F)F)ccc1Cl | 51.4 µM | > 100 µM |
| CC(=O)CSCc1ccccn1 |  | > 100 µM |
| COc1ccccc1CNCCCN1C(=O)c2ccc3c4c(ccc(c24)C1=O)C(=O)N(CCCOCCCCOCCCN)C3=O | 2.35 µM | 5.76 µM |
| CCOC(=O)[C@@H](N)CCC(=O)N[C@@H](CSCc1ccccc1)C(=O)N[C@@H](C(=O)OCC)c1ccccc1 | 16.6 µM | 31.5 µM |
| COc1ccc(Nc2c3ccccc3nc3occc23)cc1 | 2.21 µM | 14.9 µM |
| CC(=O)/C(C)=N/NC(=O)c1ccccc1O | > 100 µM | > 100 µM |
| CCCCCCCC/C=C/CCCCCCCC(=O)OC[C@H]1O[C@@H](n2ccc(N)nc2=O)C(F)(F)[C@@H]1O | 0.272 µM | > 100 µM |
| NS(=O)(=O)c1ccc(N=Nc2c(O)[nH]c3ccc(-c4cnco4)cc23)cc1 | > 25 µM | > 25 µM |
| COc1cc2c3c(n(CCCNC(=O)OCC4c5ccccc5-c5ccccc54)c(=O)c2cc1OC)-c1cc2c(cc1/C3=C\CCNC(=O)OCC1c3ccccc3-c3ccccc31)OCO2 | > 25.6 µM | > 50 µM |
| N#C/C(=C1C=C(Br)/C(=N\O)C=C\1Cl)c1cccc2ccccc12 |  | 20.3 µM |
| CN1C(=O)c2cccc3cc([N+](=O)[O-])cc(c23)C1=O |  | > 10 µM |
| CN1c2ccc(Cl)cc2C(=O)NC1c1ccc([N+](=O)[O-])s1 (centres undefined) |  | 67.2 µM |
| c1cc(CNC23CC4CC(CC(C4)C2)C3)cc(C[N+](Cc2cccc(CNC34CC5CC(CC(C5)C3)C4)c2)(Cc2cccc(CNC34CC5CC(CC(C5)C3)C4)c2)Cc2cccc(CNC34CC5CC(CC(C5)C3)C4)c2)c1 (centres undefined) | 21.4 µM | 47.7 µM |

Tested on: HCT-15 colon
Test: DTP human tumour cell line panel, 48 h

| Compound | GI50 | TGI |
| --- | --- | --- |
| CN1CCN(CCCOc2ccc3nc(Nc4ccc(Cl)c(C(F)(F)F)c4)ccc3c2)CC1 | 3.66 µM | 13.3 µM |
| CC(C)n1nc(-c2cc3cc(O)ccc3[nH]2)c2c(N)ncnc21 | 0.342 µM | 13.9 µM |
| CCCCC(O)(c1ccc(Cl)cc1)C(CN1CCOCC1)c1ccc(Cl)cc1 (centres undefined) | 11.2 µM | 26.2 µM |
| Cc1cc(C(=O)Nc2ncc(Cc3cccc(C(F)(F)F)c3)s2)c2ccccc2n1 | 0.084 µM | > 100 µM |
| O=C(N/N=C/c1ccc(Cl)cc1)c1ccc(C(F)(F)F)nc1Nc1cccc(C(F)(F)F)c1 | 0.855 µM | 12.2 µM |
| COc1cc2ncnc(Nc3ccc(C)c(O)c3)c2cc1OC | 14.1 µM | > 25 µM |
| O=C1OC(C(O)CO)C(=O)C1=O (centres undefined) | 3420 µM | > 10000 µM |
| COC(=O)C1=CNC=C(C(=O)OC)C1C1=CC(=O)C(C)=CC1=O | 17 µM | 32.6 µM |
| C=C1C(=O)O[C@H]2[C@H]1CC/C(COC(=O)C(=O)c1cn(Cc3ccccc3)c3ccccc13)=C\CC[C@@]1(C)O[C@@H]21 | 1.45 µM | 3.69 µM |
| COc1ccc(/C=C/c2ccnc3ccccc23)c(OC)c1 |  | > 10 µM |
| Cc1ccc(C(=O)CN(/C=C/C(=O)C(F)(F)F)c2ccc(S(N)(=O)=O)cc2)cc1 | 86 µM | > 100 µM |
| Clc1nc(Cl)c(Cl)c(-c2ccccc2)n1 |  | > 100 µM |
| COC(C(O)CO)C(O)C(O)C(=O)NNc1ccccc1 (centres undefined) |  | > 100 µM |
| NS(=O)(=O)c1ccc(NC2(C(=O)O)CCCC2)cc1 |  | > 100 µM |
| O=C(O)C1OC(n2cc(F)c(=O)[nH]c2=O)CC1O (centres undefined) |  | > 100 µM |
| N=C1C(c2nc3ccccc3s2)=C(O)CN1c1cc(C(F)(F)F)ccc1Cl | 3.44 µM | > 100 µM |
| CC(=O)CSCc1ccccn1 |  | > 100 µM |
| COc1ccccc1CNCCCN1C(=O)c2ccc3c4c(ccc(c24)C1=O)C(=O)N(CCCOCCCCOCCCN)C3=O | 0.888 µM | 3.3 µM |
| CCOC(=O)[C@@H](N)CCC(=O)N[C@@H](CSCc1ccccc1)C(=O)N[C@@H](C(=O)OCC)c1ccccc1 | 33.7 µM | > 71.2 µM |
| COc1ccc(Nc2c3ccccc3nc3occc23)cc1 | 0.336 µM | 14.1 µM |
| CC(=O)/C(C)=N/NC(=O)c1ccccc1O | > 10 µM | > 100 µM |
| CCCCCCCC/C=C/CCCCCCCC(=O)OC[C@H]1O[C@@H](n2ccc(N)nc2=O)C(F)(F)[C@@H]1O | 0.117 µM | > 100 µM |
| NS(=O)(=O)c1ccc(N=Nc2c(O)[nH]c3ccc(-c4cnco4)cc23)cc1 | > 25 µM | > 25 µM |
| COc1cc2c3c(n(CCCNC(=O)OCC4c5ccccc5-c5ccccc54)c(=O)c2cc1OC)-c1cc2c(cc1/C3=C\CCNC(=O)OCC1c3ccccc3-c3ccccc31)OCO2 | > 50 µM | > 50 µM |
| N#C/C(=C1C=C(Br)/C(=N\O)C=C\1Cl)c1cccc2ccccc12 |  | 25.6 µM |
| CN1C(=O)c2cccc3cc([N+](=O)[O-])cc(c23)C1=O |  | > 10 µM |
| CN1c2ccc(Cl)cc2C(=O)NC1c1ccc([N+](=O)[O-])s1 (centres undefined) |  | 35.9 µM |
| c1cc(CNC23CC4CC(CC(C4)C2)C3)cc(C[N+](Cc2cccc(CNC34CC5CC(CC(C5)C3)C4)c2)(Cc2cccc(CNC34CC5CC(CC(C5)C3)C4)c2)Cc2cccc(CNC34CC5CC(CC(C5)C3)C4)c2)c1 (centres undefined) | 4.59 µM | 16.4 µM |
